A short description of series [1]: logP by reversed-phase HPLC (LC-MS), neutral range. The class given is physicochemical. Particulars: c18 hplc, ammonium bicarbonate/acetonitrile; pH 7.8, 0,001 molar aqueous Ammoniumhydrogencarbonat / Acetonitril, C 18, 55°C. The procedure: Die Messung der logP Werte erfolgt gemäß EEC Directive 79/831 Annex V.A8 durch HPLC (High Performance Liquid Chromatography) an einer Phasenumkehrsäule (C 18). Temperatur: 55°C. Die Bestimmung mit der LC-MS im sauren Bereich erfolgt bei pH 2,7 mit 0,1 % wässriger Ameisensäure und Acetonitril (enthält 0,1% Ameisensäure) als Eluenten; linearer Gradient von 10% Acetonitril bis 95% Acetonitril. In der Tabelle logP (HCOOH) genannt.
Die Bestimmung mit der LC-MS im neutralen Bereich erfolgt bei pH 7.8 mit 0,001 molarer wässriger Ammoniumhydrogencarbonat-Lösung und Acetonitril als Eluenten; linearer Gradient von 10 % Acetonitril bis 95 % Acetonitril. In der Tabelle logP (neutral) genannt.
Die Eichung erfolgt mit unverzweigten Alkan-2-onen (mit 3 bis 16 Kohlenstoffatomen), deren logP-Werte bekannt sind (Bestimmung der logP-Werte anhand der Retentionszeiten durch lineare Interpolation zwischen zwei aufeinander folgenden Alkanonen).

Another series concerns Phaedon cochleariae. As to the kind of experiment: Phaedon cochleariae spray test (Chinese cabbage leaf discs, larvae). The class given is in vivo. The note with it: foliar, 168 h, read-out: Wirkung. The source says: (§1) Zur Herstellung einer zweckmäßigen Wirkstoffzubereitung löst man 1 Gewichtsteil Wirkstoff mit den angegebenen Gewichtsteilen Lösungsmittel und füllt mit Wasser, welches eine Emulgatorkonzentration von 1000 ppm enthält, bis zum Erreichen der gewünschten Konzentration auf. Zur Herstellung weiterer Testkonzentrationen wird mit emulgatorhaltigem Wasser verdünnt.
Chinakohlblattscheiben (Brassica pekinensis) werden mit einer Wirkstoffzubereitung der gewünschten Konzentration gespritzt und nach dem Abtrocknen mit Larven des Meerrettichblattkäfers (Phaedon cochleariae) besetzt.
Nach 7 Tagen wird die Wirkung in % bestimmt. Dabei bedeutet 100 %, dass alle Käferlarven abgetötet wurden; 0 % bedeutet, dass keine Käferlarven abgetötet wurden.

Another series deals with Spodoptera frugiperda. As to the kind of experiment: Spodoptera frugiperda spray test (maize leaf discs, caterpillars). The class given is in vivo. The note with it: foliar, 168 h, Aufwandmenge 500g/ha, after 7 days, read-out: Wirkung.
From the text: as §1
Maisblattscheiben (Zea mays) werden mit einer Wirkstoffzubereitung der gewünschten Konzentration gespritzt und nach dem Abtrocknen mit Raupen des Heerwurms (Spodoptera frugiperda) besetzt.
Nach 7 Tagen wird die Wirkung in % bestimmt. Dabei bedeutet 100 %, dass alle Raupen abgetötet wurden; 0 % bedeutet, dass keine Raupe abgetötet wurde.

Each structure is given as a SMILES string. Like-named read-outs stand apart in the source and are kept apart here.

`CC(C)C(=O)Nc1cc(N)cc(-c2ccc(C(F)(F)C(F)(F)F)c(F)c2)c1` [N-[5-Amino-3'-fluor-4'-(pentafluorethyl)biphenyl-3-yl]-2-methylpropanamid]: in series [1], the chromatographic logP – broadly, a lipophilicity value derived from retention on a column – was determined as 3.32.

`Nc1cc(N)cc(-c2ccc(C(F)(F)C(F)(F)F)c(F)c2)c1` [3'-Fluor-4'-(pentafluorethyl)biphenyl-3,5-diamin] had a chromatographic logP in series [1] of 2.83.

In turn, `CC1(C)OB(c2cc(NC(=O)C3CC3)nc(NC(=O)C3CC3)c2)OC1(C)C` [N,N'-[4-(4,4,5,5-Tetramethyl-1,3,2-dioxaborolan-2-yl)pyridin-2,6-diyl]dicyclopropancarboxamid] had a chromatographic logP in series [1] of 0.89.

In the case of `O=C(Nc1cc(Br)cc(NC(=O)C2CC2)n1)C1CC1` [N,N'-(4-Brompyridin-2,6-diyl)dicyclopropancarboxamid], the chromatographic logP in series [1] was 2.35.

`COC(=O)N(C(=O)C1CC1)c1cc(-c2ccc(OC(F)(F)F)cc2)cc(N(C(=O)OC)C(=O)C2CC2)n1` [I-037, Dimethyl-{4-[4-(trifluormethoxy)phenyl]pyridin-2,6-diyl}bis[(cyclopropylcarbonyl)carbamat]] gave a chromatographic logP in series [1] of 3.73. Besides, the mortality at 500 g/ha with Phaedon cochleariae (Aufwandmenge 500g/ha, after 7 days) came out at 100%.

In series [1], `O=C(Nc1cc(-c2ccc(OC(F)(F)F)cc2)cc(NC(=S)C2CC2)n1)C1CC1` [I-033, N-{6-[(Cyclopropylcarbonothioyl)amino]-4-[4-(trifluormethoxy)phenyl]pyridin-2-yl}cyclopropancarboxamid] gave a chromatographic logP of 4.44. In addition, the mortality at 500 g/ha with Spodoptera frugiperda is 100%.

`CN(C(=O)C1CC1)c1cc(-c2ccc(OC(F)(F)F)cc2)cc(NC(=O)C2CC2)n1` [I-31, N-{6-[(Cyclopropylcarbonyl)amino]-4-[4-(trifluormethoxy)phenyl]pyridin-2-yl}-N-methylcyclopropancarboxamid] came in with a chromatographic logP in series [1] of 3.66.

As for `FC(F)(F)Oc1ccc(-c2cc(NC(=S)C3CC3)nc(NC(=S)C3CC3)c2)cc1` [I-032, N,N'-{4-[4-(Trifluormethoxy)phenyl]pyridin-2,6-diyl}dicyclopropancarbothioamid], the chromatographic logP in series [1] turned out to be 4.98. Also, in the series on Spodoptera frugiperda, the mortality at 500 g/ha amounted to 100%.

In series [1], `Nc1cc(Br)cc(NC(=O)C2CC2)n1` [N-(6-Amino-4-brompyridin-2-yl)cyclopropancarboxamid] displayed a chromatographic logP of 1.61.

The compound `Nc1cc(Br)c(Cl)c(N)n1` [4-Brom-3-chlorpyridin-2,6-diamin] displayed a chromatographic logP in series [1] of 1.46.

As to `O=C(Nc1cc(-c2ccc(C(F)(F)C(F)(F)F)c(F)c2)cc(NC(=O)C2CC2)n1)C1CC1` [I-035, N,N'-{4-[3-Fluor-4-(pentafluorethyl)phenyl]pyridin-2,6-diyl}dicyclopropancarboxamid], in series [1], the chromatographic logP amounted to 4.06. The mortality at 500 g/ha in the series on Spodoptera frugiperda and with Phaedon cochleariae was 100% throughout.

On to `CCN(C(=O)C1CC1)c1cc(-c2ccc(OC(F)(F)F)cc2)cc(N(CC)C(=O)C2CC2)n1` [I-29, N,N'-{4-[4-(Trifluormethoxy)phenyl]pyridin-2,6-diyl}bis(N-ethylcyclopropancarboxamid)], for which, in series [1], the chromatographic logP is 4.05.

In turn, `Nc1cc(-c2ccc(OC(F)(F)F)cc2)cc(NC(=O)C2CC2)n1` [N-{6-Amino-4-[4-(trifluormethoxy)phenyl]pyridin-2-yl}cyclopropancarboxamid] returned a chromatographic logP in series [1] of 2.79.

These data come from EP3284739A1, “SUBSTITUTED (HET) ARYL COMPOUNDS AS PESTICIDES” (Bayer CropScience Aktiengesellschaft, priority 2017, dated 2018).
